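Protocol summary: plate cells (96-well), add compound at 5 concentrations, incubate 48 h, interpolate endpoints linearly. GI50: concentration for 50% inhibition of growth.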 Activity calls are given as the source filed them. No stated cut-off is given here; in the data, active = GI50 up to about 1.1 µM and inactive = higher.
Columns and labels:
Experiment in all cases: NCI-60 cell line screen, 48 h
786-0 = system: 786-0
A498 = system: A498
A549 = system: A549
ACHN = system: ACHN
BT-549 = system: BT-549
CAKI-1 = system: CAKI-1
CCRF-CEM = system: CCRF-CEM
COLO 205 = system: COLO 205
DLD-1 = system: DLD-1
DMS-114 = system: DMS-114
DMS-273 = system: DMS-273
DU-145 = system: DU-145
EKVX = system: EKVX
HCC 2998 = system: HCC 2998
HCT-116 = system: HCT-116
HCT-15 = system: HCT-15
HL-60 = system: HL-60
HOP-18 = system: HOP-18
HOP-62 = system: HOP-62
HOP-92 = system: HOP-92
HT-29 = system: HT-29
Hs-578T = system: Hs-578T
IGROV-1 = system: IGROV-1
K562 = system: K562
KM-20L2 = system: KM-20L2
KM12 = system: KM12
LOX IMVI = system: LOX IMVI
LXFL 529 = system: LXFL 529
M14 = system: M14
M19-MEL = system: M19-MEL
MCF7 = system: MCF7
MDA-MB-231 = system: MDA-MB-231
MDA-MB-435 = system: MDA-MB-435
MDA-N = system: MDA-N
MOLT-4 = system: MOLT-4
Malme-3M = system: Malme-3M
NCI-H226 = system: NCI-H226
NCI-H23 = system: NCI-H23
NCI-H460 = system: NCI-H460
NCI-H522 = system: NCI-H522
OVCAR-3 = system: OVCAR-3
OVCAR-4 = system: OVCAR-4
OVCAR-5 = system: OVCAR-5
OVCAR-8 = system: OVCAR-8
PC-3 = system: PC-3
RPMI-8226 = system: RPMI-8226
RXF 393 = system: RXF 393
RXF 631 = system: RXF 631
SF-268 = system: SF-268
SF-295 = system: SF-295
SF-539 = system: SF-539
SK-MEL-28 = system: SK-MEL-28
SK-MEL-2 = system: SK-MEL-2
SK-MEL-5 = system: SK-MEL-5
SK-OV-3 = system: SK-OV-3
SN12C = system: SN12C
SNB-19 = system: SNB-19
SNB-75 = system: SNB-75
SNB-78 = system: SNB-78
SR = system: SR
SW-620 = system: SW-620
T47D = system: T47D
TK-10 = system: TK-10
U-251 = system: U-251
UACC-257 = system: UACC-257
UACC-62 = system: UACC-62
UO-31 = system: UO-31
XF498 = system: XF498

## Cn1c2c(c3ccccc31)CCN(CCCCN1CCN(c3ccccc3)CC1)C2=O
786-0
  GI50: 29.6 µM (inactive)
A498
  GI50: 45 µM (inactive)
A549
  GI50: 97.3 µM (inactive)
ACHN
  GI50: > 100 µM (inactive)
BT-549
  GI50: 6.58 µM (inactive)
CAKI-1
  GI50: 56.4 µM (inactive)
CCRF-CEM
  GI50: 24.5 µM (inactive)
COLO 205
  GI50: 8.51 µM (inactive)
DLD-1
  GI50: 19.3 µM (inactive)
DMS-114
  GI50: 22.1 µM (inactive)
DMS-273
  GI50: 31.4 µM (inactive)
DU-145
  GI50: 35.9 µM (inactive)
EKVX
  GI50: > 38.5 µM (inactive)
HCC 2998
  GI50: 5.62 µM (inactive)
HCT-116
  GI50: 12.9 µM (inactive)
HCT-15
  GI50: 17.2 µM
HL-60
  GI50: 7.78 µM (inactive)
HOP-18
  GI50: > 31.6 µM (inactive)
HOP-62
  GI50: 85.7 µM (inactive)
HOP-92
  GI50: > 29.1 µM (inactive)
HT-29
  GI50: 4.16 µM (inactive)
Hs-578T
  GI50: 12.4 µM (inactive)
IGROV-1
  GI50: > 76.6 µM (inactive)
K562
  GI50: 4.15 µM (inactive)
KM-20L2
  GI50: 4.29 µM (inactive)
KM12
  GI50: 30.1 µM (inactive)
LOX IMVI
  GI50: 12.8 µM (inactive)
LXFL 529
  GI50: 33.9 µM (inactive)
M14
  GI50: 4.58 µM (inactive)
M19-MEL
  GI50: 43.6 µM (inactive)
MCF7
  GI50: 19.2 µM (inactive)
MDA-MB-231
  GI50: > 10 µM (inactive)
MDA-MB-435
  GI50: 17.5 µM (inactive)
MDA-N
  GI50: 21.6 µM (inactive)
MOLT-4
  GI50: 7.38 µM (inactive)
Malme-3M
  GI50: 8.04 µM (inactive)
NCI-H226
  GI50: > 41.8 µM (inactive)
NCI-H23
  GI50: 35.6 µM (inactive)
NCI-H460
  GI50: 28.6 µM (inactive)
NCI-H522
  GI50: 42 µM (inactive)
OVCAR-3
  GI50: 57.3 µM (inactive)
OVCAR-4
  GI50: 42.1 µM (inactive)
OVCAR-5
  GI50: 19.6 µM (inactive)
OVCAR-8
  GI50: 47.6 µM (inactive)
PC-3
  GI50: 11.7 µM (inactive)
RPMI-8226
  GI50: 17 µM (inactive)
RXF 393
  GI50: 10.8 µM (inactive)
RXF 631
  GI50: 9.66 µM (inactive)
SF-268
  GI50: 56 µM (inactive)
SF-295
  GI50: > 88.3 µM (inactive)
SF-539
  GI50: 34 µM (inactive)
SK-MEL-28
  GI50: 15.8 µM (inactive)
SK-MEL-2
  GI50: 24 µM (inactive)
SK-MEL-5
  GI50: 5.69 µM (inactive)
SK-OV-3
  GI50: > 100 µM (inactive)
SN12C
  GI50: > 65.6 µM (inactive)
SNB-19
  GI50: 75.9 µM (inactive)
SNB-75
  GI50: 44.8 µM (inactive)
SNB-78
  GI50: > 100 µM (inactive)
SR
  GI50: 8.93 µM (inactive)
SW-620
  GI50: 22.8 µM (inactive)
T47D
  GI50: 3.86 µM (inactive)
TK-10
  GI50: 45 µM (inactive)
U-251
  GI50: 34.8 µM (inactive)
UACC-257
  GI50: 5.86 µM (inactive)
UACC-62
  GI50: 31.8 µM (inactive)
UO-31
  GI50: 17.3 µM (inactive)
XF498
  GI50: 14.1 µM (inactive)

## O=C1C(Cl)=C(Cl)C(=O)N1c1cccc(C(F)(F)F)c1
786-0
  GI50: > 100 µM (inactive)
A498
  GI50: > 100 µM (inactive)
A549
  GI50: > 100 µM (inactive)
ACHN
  GI50: > 100 µM (inactive)
CAKI-1
  GI50: > 61.9 µM (inactive)
CCRF-CEM
  GI50: > 51.9 µM (inactive)
COLO 205
  GI50: > 79.3 µM (inactive)
DLD-1
  GI50: > 93.3 µM (inactive)
DMS-114
  GI50: > 100 µM (inactive)
DMS-273
  GI50: > 100 µM (inactive)
EKVX
  GI50: > 100 µM (inactive)
HCC 2998
  GI50: > 100 µM (inactive)
HCT-116
  GI50: > 100 µM (inactive)
HCT-15
  GI50: > 100 µM
HL-60
  GI50: > 100 µM (inactive)
HOP-18
  GI50: > 100 µM (inactive)
HOP-62
  GI50: > 100 µM (inactive)
HOP-92
  GI50: > 100 µM (inactive)
HT-29
  GI50: > 100 µM (inactive)
IGROV-1
  GI50: > 100 µM (inactive)
K562
  GI50: > 54.5 µM (inactive)
KM-20L2
  GI50: > 100 µM (inactive)
KM12
  GI50: > 100 µM (inactive)
LOX IMVI
  GI50: > 100 µM (inactive)
LXFL 529
  GI50: > 100 µM (inactive)
M14
  GI50: > 100 µM (inactive)
M19-MEL
  GI50: > 100 µM (inactive)
MOLT-4
  GI50: 51.4 µM (inactive)
Malme-3M
  GI50: > 100 µM (inactive)
NCI-H226
  GI50: > 100 µM (inactive)
NCI-H23
  GI50: > 100 µM (inactive)
NCI-H460
  GI50: > 100 µM (inactive)
NCI-H522
  GI50: 12.1 µM (inactive)
OVCAR-3
  GI50: > 100 µM (inactive)
OVCAR-4
  GI50: > 100 µM (inactive)
OVCAR-5
  GI50: > 100 µM (inactive)
OVCAR-8
  GI50: > 100 µM (inactive)
RPMI-8226
  GI50: > 65.6 µM (inactive)
RXF 393
  GI50: 34 µM (inactive)
RXF 631
  GI50: > 100 µM (inactive)
SF-268
  GI50: > 100 µM (inactive)
SF-295
  GI50: > 100 µM (inactive)
SF-539
  GI50: > 100 µM (inactive)
SK-MEL-28
  GI50: > 100 µM (inactive)
SK-MEL-2
  GI50: > 100 µM (inactive)
SK-MEL-5
  GI50: > 100 µM (inactive)
SK-OV-3
  GI50: > 100 µM (inactive)
SN12C
  GI50: > 100 µM (inactive)
SNB-19
  GI50: > 100 µM (inactive)
SNB-75
  GI50: > 100 µM (inactive)
SNB-78
  GI50: > 100 µM (inactive)
SR
  GI50: 35.9 µM (inactive)
SW-620
  GI50: > 100 µM (inactive)
TK-10
  GI50: > 100 µM (inactive)
U-251
  GI50: > 100 µM (inactive)
UACC-257
  GI50: > 100 µM (inactive)
UACC-62
  GI50: > 100 µM (inactive)
UO-31
  GI50: > 100 µM (inactive)
XF498
  GI50: 3.77 µM (inactive)
